According to ChEMBL document CHEMBL5380833 (J Med Chem, 2023):
The source made the active and inactive calls. The rule behind the calls is not given here.

Columns and labels:
[1] = biological target: T1, Protein cereblon/Tyrosine-protein kinase ITK/TSK (Homo sapiens, UniProt Q08881+Q96SW2); assay: PROTAC activity at CRBN/ITK in human Jurkat cells assessed as maximum degradation at 0.01 to 10 uM by Western blot analysis relative to control; type: cell-based; details: dose 0.01-10 µM
[2] = biological target: T1, Protein cereblon/Tyrosine-protein kinase ITK/TSK; assay: PROTAC activity at CRBN/ITK in human Jurkat cells assessed as reduction in ITK protein at 100 nM measured within 4 hrs; type: cell-based
[3] = biological target: T1, Protein cereblon/Tyrosine-protein kinase ITK/TSK; assay: PROTAC activity at CRBN/ITK in human Jurkat cells assessed as induction of ITK degradation at 100 nM pretreated with proteosome inhibitor carfilzomib for 1 hr followed by compound addition and measured after 2 hrs by Western blot analysis; type: cell-based
[4] = biological target: T1, Protein cereblon/Tyrosine-protein kinase ITK/TSK; assay: PROTAC activity at CRBN/ITK in human Jurkat cells assessed as induction of ITK degradation at 100 nM pretreated with MLN4924 for 1 hr followed by compound addition and measured after 2 hrs by Western blot analysis; type: cell-based
[5] = biological target: T1, Protein cereblon/Tyrosine-protein kinase ITK/TSK; assay: PROTAC activity at CRBN/ITK in Jurkat cells assessed as induction of ITK degradation at 100 nM pretreated with GNE-9822 for 1 hr followed by compound addition and measured after 2 hrs by Western blot analysis; type: cell-based
[6] = biological target: T1, Protein cereblon/Tyrosine-protein kinase ITK/TSK; assay: PROTAC activity at CRBN/ITK in human Jurkat cells assessed as induction of ITK degradation at 100 nM pretreated with 5-amino-2-(2,6-dioxopiperidin-3-yl)isoindoline-1,3-dione for 1 hr followed by compound addition and measured after 2 hrs by Western blot analysis; type: cell-based
[7] = biological target: T1, Protein cereblon/Tyrosine-protein kinase ITK/TSK; assay: PROTAC activity at CRBN/ITK in human Jurkat cells assessed as induction of ITK degradation at 100 nM measured after 2 hrs by Western blot analysis; type: cell-based
[8] = biological target: T2, Tyrosine-protein kinase ZAP-70 (Homo sapiens) (UniProt P43403); assay: Induction of degradation of ZAP-70 in human Jurkat cells at 0.01 to 10 uM by immunoblotting analysis; type: cell-based; details: dose 0.01-10 µM
T2 sequence (whole entry): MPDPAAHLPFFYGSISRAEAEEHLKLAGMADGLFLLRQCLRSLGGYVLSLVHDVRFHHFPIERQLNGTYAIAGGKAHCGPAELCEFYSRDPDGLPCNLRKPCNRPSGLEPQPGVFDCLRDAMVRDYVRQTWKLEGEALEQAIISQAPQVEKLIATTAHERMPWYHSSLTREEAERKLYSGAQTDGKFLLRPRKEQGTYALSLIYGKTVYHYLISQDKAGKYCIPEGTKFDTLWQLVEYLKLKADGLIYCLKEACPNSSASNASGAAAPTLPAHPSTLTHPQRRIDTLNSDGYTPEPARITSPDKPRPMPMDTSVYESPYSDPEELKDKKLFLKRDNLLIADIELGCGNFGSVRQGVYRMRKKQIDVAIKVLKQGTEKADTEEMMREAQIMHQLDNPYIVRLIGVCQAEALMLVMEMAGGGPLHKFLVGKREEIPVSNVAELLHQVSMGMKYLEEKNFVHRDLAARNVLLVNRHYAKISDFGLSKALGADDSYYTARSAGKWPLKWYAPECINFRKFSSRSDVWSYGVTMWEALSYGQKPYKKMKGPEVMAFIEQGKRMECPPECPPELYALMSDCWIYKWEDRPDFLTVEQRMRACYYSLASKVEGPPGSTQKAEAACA

[9] = biological target: T3, Cytoplasmic tyrosine-protein kinase BMX (Homo sapiens) (UniProt P51813); assay: Induction of degradation of BMX in human Jurkat cells at 0.01 to 10 uM by immunoblotting analysis; type: cell-based; details: dose 0.01-10 µM
T3 sequence (whole entry): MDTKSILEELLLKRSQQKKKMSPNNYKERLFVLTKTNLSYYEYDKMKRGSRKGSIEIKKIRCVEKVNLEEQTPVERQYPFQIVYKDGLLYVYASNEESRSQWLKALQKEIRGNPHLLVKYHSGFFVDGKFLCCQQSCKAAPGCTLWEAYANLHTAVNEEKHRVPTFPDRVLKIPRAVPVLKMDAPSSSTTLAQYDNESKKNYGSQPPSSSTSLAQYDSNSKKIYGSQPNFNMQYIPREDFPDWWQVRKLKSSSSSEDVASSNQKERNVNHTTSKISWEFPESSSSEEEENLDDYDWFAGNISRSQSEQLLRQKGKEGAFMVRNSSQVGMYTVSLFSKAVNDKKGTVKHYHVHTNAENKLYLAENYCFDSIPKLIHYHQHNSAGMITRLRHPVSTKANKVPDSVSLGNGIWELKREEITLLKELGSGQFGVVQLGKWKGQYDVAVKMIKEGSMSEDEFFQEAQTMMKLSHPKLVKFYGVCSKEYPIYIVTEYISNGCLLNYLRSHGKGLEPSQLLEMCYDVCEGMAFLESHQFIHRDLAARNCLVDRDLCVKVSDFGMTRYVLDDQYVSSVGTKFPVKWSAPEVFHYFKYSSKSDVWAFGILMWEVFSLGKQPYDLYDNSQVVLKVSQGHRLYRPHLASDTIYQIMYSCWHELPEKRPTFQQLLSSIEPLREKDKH

[10] = biological target: Tyrosine-protein kinase Yes (Homo sapiens) (UniProt P07947); assay: Induction of degradation of YES in human Ramos cells at 0.01 to 10 uM by immunoblotting analysis; type: cell-based; details: dose 0.01-10 µM
Jurkat [11] = assay: Induction of degradation of RSK in human Jurkat cells at 0.01 to 10 uM by immunoblotting analysis; type: cell-based; details: dose 0.01-10 µM
[12] = biological target: T1, Protein cereblon/Tyrosine-protein kinase ITK/TSK; assay: PROTAC activity at CRBN/ITK in human Jurkat cells assessed as […] ITK degradation at 300 nM incubated for 8 hrs by tandem mass tag quantitative proteomic analysis; type: cell-based
Jurkat [13] = assay: Inhibition of TCR signalling in human Jurkat cells assessed as reduction in ERK(T202/Y204) phosphorylation preincubated with cells for 12 hrs followed by anti-CD-2 antibody stimulation for 5 mins by Western blot analysis; type: cell-based; details: dose 0.01-3 µM
Interleukin-2 = Interleukin-2 (Homo sapiens, UniProt P60568); assay: Inhibition of IL-2 in human Jurkat cells pretreated with compound for 4 hrs followed by anti-CD3/CD28 stimulation by ELISA analysis; type: cell-based
[14] = AUC (0 to t) in Balb/c mouse at 5 mg/kg, iv measured upto 24 hrs by LC-MS/MS analysis; type: ADME, organism-based; parameters: dose 5 mg/kg, time < 24 hrs, route iv; details: in vivo
[15] = AUC (0 to t) in Balb/c mouse at 10 mg/kg, ip measured upto 24 hrs by LC-MS/MS analysis; type: ADME, organism-based; parameters: time < 24 hrs, dose 10 mg/kg, route ip; details: in vivo
[16] = AUC (0 to infinity) in Balb/c mouse at 10 mg/kg, ip measured upto 24 hrs by LC-MS/MS analysis; type: ADME, organism-based; parameters: dose 10 mg/kg, time < 24 hrs, route ip; details: in vivo
[17] = Half life in Balb/c mouse at 5 mg/kg, iv measured upto 24 hrs by LC-MS/MS analysis; type: ADME, organism-based; details: in vivo
[18] = Volume of distribution at steady state in Balb/c mouse at 10 mg/kg, ip measured upto 24 hrs by LC-MS/MS analysis; type: ADME, organism-based; details: in vivo
[19] = MRT last in Balb/c mouse at 5 mg/kg, iv measured upto 24 hrs by LC-MS/MS analysis; type: ADME, organism-based; details: in vivo, iv, 5 mg/kg, 24 h
[20] = Toxicity in Balb/c mouse assessed as drug tolerance at 5 mg/kg, iv measured upto 24 hrs by LC-MS/MS analysis; type: organism-based; details: in vivo

T1 sequence (Q08881 whole entry, looked up): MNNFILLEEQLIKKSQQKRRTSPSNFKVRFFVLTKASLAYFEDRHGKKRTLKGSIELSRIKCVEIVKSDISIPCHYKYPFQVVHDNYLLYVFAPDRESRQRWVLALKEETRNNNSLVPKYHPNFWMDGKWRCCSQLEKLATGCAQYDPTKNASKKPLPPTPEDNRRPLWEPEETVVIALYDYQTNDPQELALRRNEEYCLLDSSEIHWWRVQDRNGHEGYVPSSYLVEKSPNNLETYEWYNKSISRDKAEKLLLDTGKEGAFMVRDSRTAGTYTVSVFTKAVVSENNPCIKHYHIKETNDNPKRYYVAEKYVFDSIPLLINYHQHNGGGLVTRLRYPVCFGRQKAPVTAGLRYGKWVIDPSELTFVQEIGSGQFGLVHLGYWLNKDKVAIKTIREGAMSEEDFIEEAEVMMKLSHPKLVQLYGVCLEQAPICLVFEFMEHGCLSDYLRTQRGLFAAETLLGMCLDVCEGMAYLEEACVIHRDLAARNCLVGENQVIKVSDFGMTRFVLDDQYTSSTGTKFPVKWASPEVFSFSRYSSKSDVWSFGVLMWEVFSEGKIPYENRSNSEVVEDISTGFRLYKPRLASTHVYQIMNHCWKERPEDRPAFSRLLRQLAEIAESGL
T1 sequence (Q96SW2 whole entry, looked up): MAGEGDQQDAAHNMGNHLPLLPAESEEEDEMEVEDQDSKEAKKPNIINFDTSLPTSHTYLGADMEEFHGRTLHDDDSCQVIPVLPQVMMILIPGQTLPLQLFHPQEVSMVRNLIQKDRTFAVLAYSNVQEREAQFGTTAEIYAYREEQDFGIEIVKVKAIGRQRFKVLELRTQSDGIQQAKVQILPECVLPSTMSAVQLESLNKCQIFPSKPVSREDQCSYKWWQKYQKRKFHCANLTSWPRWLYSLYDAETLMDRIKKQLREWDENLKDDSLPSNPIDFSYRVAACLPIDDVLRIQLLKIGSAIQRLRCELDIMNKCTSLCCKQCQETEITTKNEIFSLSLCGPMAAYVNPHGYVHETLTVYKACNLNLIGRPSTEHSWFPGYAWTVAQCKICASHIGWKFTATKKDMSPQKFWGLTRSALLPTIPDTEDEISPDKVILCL
Tyrosine-protein kinase Yes (Homo sapiens), sequence (P07947 2-543 limits assumed): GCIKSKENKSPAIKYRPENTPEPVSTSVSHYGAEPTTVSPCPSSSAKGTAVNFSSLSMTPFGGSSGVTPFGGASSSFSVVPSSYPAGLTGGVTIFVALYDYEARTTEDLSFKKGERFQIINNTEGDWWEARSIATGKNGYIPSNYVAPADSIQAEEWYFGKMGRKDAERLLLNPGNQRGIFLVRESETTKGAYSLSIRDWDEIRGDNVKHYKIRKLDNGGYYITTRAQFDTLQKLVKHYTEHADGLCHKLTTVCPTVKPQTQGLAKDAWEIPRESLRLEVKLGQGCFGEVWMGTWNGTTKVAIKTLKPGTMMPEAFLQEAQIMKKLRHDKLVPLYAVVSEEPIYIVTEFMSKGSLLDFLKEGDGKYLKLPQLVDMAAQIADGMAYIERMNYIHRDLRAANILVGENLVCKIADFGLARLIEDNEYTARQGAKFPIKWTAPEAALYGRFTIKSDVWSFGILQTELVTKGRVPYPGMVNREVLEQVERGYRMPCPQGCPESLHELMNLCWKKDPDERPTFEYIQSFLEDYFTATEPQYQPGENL
Interleukin-2, sequence (P60568 whole entry): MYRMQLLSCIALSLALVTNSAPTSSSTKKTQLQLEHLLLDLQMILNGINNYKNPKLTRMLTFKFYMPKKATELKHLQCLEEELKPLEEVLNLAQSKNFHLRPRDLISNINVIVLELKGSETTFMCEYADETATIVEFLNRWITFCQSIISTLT

Emax [1]: 99%
Activity [2]: Active
Activity [3]: inactive
Activity [4]: inactive
Activity [5]: inactive
Activity [6]: inactive
Activity [7]: Active
Activity [8]: inactive
Activity [9]: inactive
Activity [10]: inactive
Activity [12]: Active
EC50 (Interleukin-2): 25.3 nM
AUC(0-t) at 24 h [14]: 1080 ng·h/mL
AUC(0-t) at 24 h [15]: 1560 ng·h/mL
AUC(0-inf) [16]: 1590 ng·h/mL
half-life [17]: 1.88 h
Vdss [18]: 18.4 L/kg
MRTlast [19]: 0.39 h
SMILES: CN(CCCCCC(=O)Nc1ccc2c(c1)C(=O)N(C1CCC(=O)NC1=O)C2=O)CC[C@@H](c1ccccc1)n1cc(NC(=O)c2n[nH]c3c2CCC(C)(C)C3)cn1.O=C(O)C(F)(F)F (stereo partly specified)
Activity (Jurkat [11]): inactive
inhibition (Jurkat [13]): Dose-Dependent Effect
Activity [20]: Non-Toxic
